Data reported in patent publication US5962502A, “Polyamidic acid derivatives with antigastrin activity, a method for their preparation, and their pharmaceutical use” (priority 1993, dated 1999).

Tests used:
central CCK-B receptor = target: T1, central CCK-B receptor (Cavia porcellus, UniProt H0VZC5); experiment: Inhibition of the binding of [3-H][N-methyl-N-leucine]CCK-8 to guinea-pig cortical membranes; conditions: for IC50: 150 minutes at 25° C.
T1 construct: Cerebral cortices of male white guinea-pigs were thus used; from tissue; host or cells: cerebral cortex membranes of male white guinea-pigs
T1 sequence (H0VZC5 1-426): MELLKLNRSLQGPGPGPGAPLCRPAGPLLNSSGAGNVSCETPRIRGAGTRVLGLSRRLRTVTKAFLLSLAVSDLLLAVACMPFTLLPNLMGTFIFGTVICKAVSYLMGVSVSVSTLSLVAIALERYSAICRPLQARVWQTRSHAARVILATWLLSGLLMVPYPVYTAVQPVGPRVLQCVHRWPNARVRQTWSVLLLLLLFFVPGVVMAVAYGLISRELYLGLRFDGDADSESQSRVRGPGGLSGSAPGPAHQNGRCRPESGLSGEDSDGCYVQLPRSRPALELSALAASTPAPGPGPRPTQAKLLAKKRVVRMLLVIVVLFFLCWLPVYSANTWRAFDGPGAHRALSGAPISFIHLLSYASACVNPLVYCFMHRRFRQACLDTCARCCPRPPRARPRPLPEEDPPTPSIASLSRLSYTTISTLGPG
Procedure: The ability of the compounds of the invention to interact with the central CCK-B receptor was evaluated with the use of non-sulphated [3-H] […] 225 (3) (1990), 1278-1286].
Cerebral cortices of male white guinea-pigs were thus used, according to the method mentioned above, so as to obtain a membrane content corresponding to about 300 mcg of proteins/ml. The membranes were incubated together with the radioactive tracer and the compounds under test for 150 minutes at 25° C. After the supernatant had been discarded, the radioactivity associated with the pellet was determined with a liquid scintillator. The specific binding was determined as the difference between the binding in the absence and in the presence of 5.10^-6 M CCK-8.

[1] = target: T2, gastrin receptors or type-B cholecystokinin (CCK-B) receptors (Oryctolagus cuniculus, UniProt P46627); experiment: Inhibition of the gastrin-induced increase of cytosolic calcium in rabbit gastric mucous-membrane cells (Fura 2); type: cell-based; conditions: for Ratio IC50 Binding cortex / IC50 (gastric mucous cells): binding values taken from Table 3; for IC50, inhibition of the increase of cytosolic calcium: rabbit gastric mucous cells enriched in parietal cells, gastrin 5×10^-8
T2 construct: Rabbit gastric mucous-membrane cells were prepared by conventional techniques; endogenous in cells; host or cells: freshly isolated rabbit gastric mucosal cells, enriched by elutriation to about 70% parietal cells
T2 sequence (P46627 1-452): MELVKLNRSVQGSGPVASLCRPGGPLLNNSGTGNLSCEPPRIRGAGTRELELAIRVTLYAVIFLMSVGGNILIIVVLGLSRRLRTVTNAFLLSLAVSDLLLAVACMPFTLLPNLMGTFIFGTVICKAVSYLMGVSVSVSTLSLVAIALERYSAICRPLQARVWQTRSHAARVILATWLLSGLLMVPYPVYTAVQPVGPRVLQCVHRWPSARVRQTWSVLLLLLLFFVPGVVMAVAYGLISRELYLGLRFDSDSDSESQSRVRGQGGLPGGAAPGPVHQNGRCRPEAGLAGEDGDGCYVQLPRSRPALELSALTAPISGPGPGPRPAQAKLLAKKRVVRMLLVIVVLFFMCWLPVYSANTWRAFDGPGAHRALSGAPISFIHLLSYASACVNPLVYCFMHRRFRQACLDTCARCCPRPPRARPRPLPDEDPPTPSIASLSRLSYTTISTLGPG
Description: The parietal cells of the gastric mucous membrane are responsible for the secretion of HCl. They have specific membrane receptors which can be activated by gastrin and which have been defined as gastrin receptors or type-B cholecystokinin (CCK-B) receptors. Since it has been observed that the activation of the CCK-B receptors by gastrin leads to an increase in the cytosolic levels of calcium ions, a technique involving the measurement of the increase in intracellular calcium induced by gastrin in the presence and in the absence of the compounds of the invention was used as an index of the antigastrin activity of the compounds. Rabbit gastric mucous-membrane cells were prepared by conventional techniques with the use of collagenase and pronase as digestive enzymes. The cellular preparation obtained by the enzymatic digestion was composed of parietal cells, zymogen cells and mucous-membrane cells. […] The cells were then washed and resuspended in a saline solution buffered with HEPES containing, in mM: […] Each measurement was carried out on cells in suspension (0.8×10^6 /ml) at a thermostatically-controlled temperature of 37° C. and with constant magnetic stirring. The fluorescence was recorded with the use of a spectrofluorometer. The operative wavelengths were 340/380 nm for excitation and 505 nm for emission. […] Biol. Chem. 260 (1985), 3440]. […] The results thus obtained for some compounds of the invention are given in Table 4, which also gives an index derived from the ratio between the peripheral antigastrin activity just described and the displacement activity found in the test on binding to the guinea-pig cortex receptors described above.

CCK-A = target: T3, CCK-A (Cavia porcellus, UniProt Q63931); experiment: Anti-CCK-A activity on guinea-pig gall bladder stimulated in vitro by CCK-8; conditions: for IC50: guinea-pig gall bladder in vitro, CCK-8 10 ng/ml, read-out: CCK-A-antagonistic activity IC50 (I)
T3 construct: A longitudinal strip of guinea-pig gall-bladder was put in a bath for isolated organs; from tissue; host or cells: guinea-pig gall bladder longitudinal strip
T3 sequence (Q63931 1-430): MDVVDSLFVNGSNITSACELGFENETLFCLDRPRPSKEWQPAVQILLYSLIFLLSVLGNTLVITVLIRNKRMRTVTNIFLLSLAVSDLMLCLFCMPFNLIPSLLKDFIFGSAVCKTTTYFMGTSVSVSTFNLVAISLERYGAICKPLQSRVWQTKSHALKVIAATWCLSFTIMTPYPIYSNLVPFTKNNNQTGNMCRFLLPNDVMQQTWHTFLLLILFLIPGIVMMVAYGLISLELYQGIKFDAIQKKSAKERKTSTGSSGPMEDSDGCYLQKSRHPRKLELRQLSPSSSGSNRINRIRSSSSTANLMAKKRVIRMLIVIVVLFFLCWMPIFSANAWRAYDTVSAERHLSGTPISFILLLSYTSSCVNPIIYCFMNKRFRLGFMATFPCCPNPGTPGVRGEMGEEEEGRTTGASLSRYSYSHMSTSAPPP
Procedure: The experimental model used was guinea-pig gall bladder stimulated in vitro by CCK-8, with the use of lorglumide as the reference standard. A longitudinal strip of guinea-pig gall-bladder was put in a bath for isolated organs in the presence of Krebs buffer at a temperature of 32° C., with continuous oxygenation with an oxygen-CO2 mixture (95-[…]). The isometric contractions were detected by means of a force transducer and recorded.

| Structure (SMILES) | IC50 (central CCK-B receptor; guinea-pig cortical membranes) [µM] | Ratio IC50 Binding cortex / IC50 (gastric mucous cells) [1] | IC50, inhibition of the increase of cytosolic calcium [1] | inhibition of the binding of [N-methyl-N-leucine]CCK-8, result in words (central CCK-B receptor; guinea-pig cortical membranes) | IC50 order of magnitude, peripheral antigastrin activity ([1]; rabbit gastric mucous cells) | CCK-B-antagonistic activity IC50 (II) ([1]; data taken from Table 4 (rabbit gastric mucous cells), reprinted in Table 6) [µM] | Ratio I/II (CCK-A IC50 / CCK-B IC50) (CCK-A; gall bladder IC50 over gastric mucous cells IC50) | IC50 (CCK-A) [µM] | times more active than the corresponding diastereoisomer at the carbon atom (**) (central CCK-B receptor; binding, guinea-pig cortex) |
| --- | --- | --- | --- | --- | --- | --- | --- | --- | --- |
| CN(CC(=O)O)C(=O)CC[C@@H](NC(=O)c1cc(Cl)cc(Cl)c1)C(=O)N1CCC2(CCCC2)CC1 [Compound 2] | 0.61 | 0.7 | 1.50 µM | – | – | – | – | – | – |
| CC(C)CC(NC(=O)CC[C@@H](NC(=O)c1cc(Cl)cc(Cl)c1)C(=O)N1CCC2(CCCC2)CC1)C(=O)O (stereo partly drawn) [Compound 6] | 0.38 | 7.6 | 0.05 µM | – | – | – | – | – | – |
| O=C(CC[C@@H](NC(=O)c1cc(Cl)cc(Cl)c1)C(=O)N1CCC2(CCCC2)CC1)NC(Cc1ccccc1)C(=O)O (stereo partly drawn) [Compound 8] | 0.2 | 3.3 | 0.06 µM | – | – | – | – | – | – |
| CN(C(=O)CC[C@@H](NC(=O)c1cc(Cl)cc(Cl)c1)C(=O)N1CCC2(CCCC2)CC1)C(Cc1ccccc1)C(=O)O (stereo partly drawn) [Compound 11] | 0.22 | 3.1 | 0.07 µM | – | – | – | – | – | – |
| O=C(CC[C@@H](NC(=O)c1cc(Cl)cc(Cl)c1)C(=O)N1CCC2(CCCC2)CC1)NC(CCc1ccccc1)C(=O)O (stereo partly drawn) [Compound 16] | 0.3 | 2.0 | 0.15 µM | – | – | – | – | – | – |
| O=C(CC[C@@H](NC(=O)c1cc(Cl)cc(Cl)c1)C(=O)N1CCC2(CCCC2)CC1)NC(Cc1ccc(O)cc1)C(=O)O (stereo partly drawn) [Compound 18] | 0.32 | 1.6 | 0.20 µM | – | – | – | – | – | – |
| O=C(CC[C@@H](NC(=O)c1cc(Cl)cc(Cl)c1)C(=O)N1CCC2(CCCC2)CC1)NC(Cc1c[nH]c2ccccc12)C(=O)O (stereo partly drawn) [Compound 19] | 0.05 | 5.0 | 0.01 µM | potent inhibitors | nanomolar order of magnitude | – | – | – | – |
| CN(C(=O)CC[C@@H](NC(=O)c1cc(Cl)cc(Cl)c1)C(=O)N1CCC2(CCCC2)CC1)[C@@H](Cc1c[nH]c2ccccc12)C(=O)O [Compound 22] | 0.38 | 7.6 | 0.05 µM | – | – | – | – | – | – |
| O=C(CC[C@@H](NC(=O)c1cc(Cl)cc(Cl)c1)C(=O)N1CCC2(CCCC2)CC1)N[C@H](COCc1ccccc1)C(=O)O [Compound 23] | 0.27 | 4.5 | 0.06 µM | – | – | – | – | – | – |
| O=C(CC[C@@H](NC(=O)c1cc(Cl)cc(Cl)c1)C(=O)N1CCC2(CCCC2)CC1)N[C@H](Cc1ccc2ccccc2c1)C(=O)O [Compound 24] | 0.13 | 4.3 | 0.03 µM | – | – | 0.03 | 1527 | 45.8 | – |
| O=C(CC[C@@H](NC(=O)c1cc(Cl)cc(Cl)c1)C(=O)N1CCC2(CCCC2)CC1)N[C@H](CC1CCCCC1)C(=O)O [Compound 28] | 0.65 | 6.5 | 0.10 µM | – | – | – | – | – | – |
| CC1(C)CCC(NC(=O)[C@H](CCC(=O)O)NC(=O)CC[C@@H](NC(=O)c2cc(Cl)cc(Cl)c2)C(=O)N2CCC3(CCCC3)CC2)CC1 [Compound 34] | 0.73 | 10.4 | 0.07 µM | – | – | – | – | – | about twice |
| CC1(C)CCC(NC(=O)[C@@H](CCC(=O)O)NC(=O)CC[C@@H](NC(=O)c2cc(Cl)cc(Cl)c2)C(=O)N2CCC3(CCCC3)CC2)CC1 [Compound 35] | 1.7 | 14.2 | 0.12 µM | – | – | – | – | – | – |
| O=C(C[C@@H](NC(=O)c1cc(Cl)cc(Cl)c1)C(=O)N1CCC2(CCCC2)CC1)N[C@H](Cc1c[nH]c2ccccc12)C(=O)O [Compound 43] | 1.03 | 14.7 | 0.07 µM | – | – | – | – | – | – |
| O=C(CC[C@@H](NC(=O)c1cc(Cl)cc(Cl)c1)C(=O)N1CCC2(CCCC2)CC1)Nc1ccc(C(=O)O)cc1 [Compound 47] | 1.72 | 4.5 | 0.38 µM | – | – | – | – | – | – |
| Cc1cc(C(=O)O)ccc1NC(=O)CC[C@@H](NC(=O)c1cc(Cl)cc(Cl)c1)C(=O)N1CCC2(CCCC2)CC1 [Compound 52] | 2.77 | 1.2 | 2.33 µM | – | – | – | – | – | – |
| CC(C)(C)CCNC(=O)[C@@H](CCC(=O)Nc1ccc(C(=O)O)cc1)NC(=O)c1cc(Cl)cc(Cl)c1 [Compound 53] | 6.4 | – | IN (IN (inactive) when the IC50 is >3.10^-5 M) | – | – | – | – | – | – |
| CCCCCN(CCCCC)C(=O)C(CCC(=O)O)NC(=O)c1ccc(Cl)c(Cl)c1 (stereo not drawn) [R-lorglumide, reference compound] | – | – | – | – | – | – | – | 0.05 | – |
